Measurements reported in patent US6958347B2, “Aminophenanthridinone and aminophenanthridine as NPY-5 antagonists” (Pfizer Inc., priority 2002, dated 2005).

Biological target: T1, Y1 (Homo sapiens, UniProt P25929)
T1 sequence (P25929 1-384): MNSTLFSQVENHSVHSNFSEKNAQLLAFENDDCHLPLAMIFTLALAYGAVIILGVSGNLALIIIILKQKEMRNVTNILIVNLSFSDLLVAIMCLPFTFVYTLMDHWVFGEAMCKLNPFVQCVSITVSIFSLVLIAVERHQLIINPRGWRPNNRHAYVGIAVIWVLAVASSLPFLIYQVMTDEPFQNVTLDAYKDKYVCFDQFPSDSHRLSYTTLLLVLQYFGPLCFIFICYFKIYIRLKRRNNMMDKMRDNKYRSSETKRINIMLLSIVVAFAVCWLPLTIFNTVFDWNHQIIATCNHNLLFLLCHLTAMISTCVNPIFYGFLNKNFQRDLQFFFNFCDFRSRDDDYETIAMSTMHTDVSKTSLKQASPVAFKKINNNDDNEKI
Test: Endogenous NPY response of host Bowes melanoma cells (low levels of Y1 responses)
Conditions: 10 uM; human Bowes melanoma cells (HMCB)

NC(N)=NCCC[C@@H](NC(=O)C(c1ccccc1)c1ccccc1)C(=O)NCc1ccc(O)cc1 [BIBP3226]
block of the endogenous NPY response: completely blocks
